Assay results from ChEMBL document CHEMBL5523764, “Discovery of NO Donor-Aurovertin Hybrids as Dual Ferroptosis and Apoptosis Inducers for Treating Triple Negative Breast Cancer” (J Med Chem, 2024).
Activity calls are given as the source filed them. The rule behind the calls is not given here.

Assays:
MDA-MB-231 [1] = assay: Antiproliferative activity against human MDA-MB-231 cells assessed as reduction in cell viability incubated for 72 hrs by MTT assay; assay type: functional, cell-based; details: MDA-MB-231, 72 h
MDA-MB-231 [2] = assay: Induction of apoptosis in human MDA-MB-231 cells assessed as upregulation of cleaved caspase-3 expression at 0.25 to 1 uM by Western blot analysis; assay type: functional, cell-based; details: dose 0.25-1 µM
T47D = assay: Antiproliferative activity against human T47D cells assessed as reduction in cell viability incubated for 72 hrs by MTT assay; assay type: functional, cell-based
4T1 [3] = assay: Downregulation of phosphorylated AKT protein level at Thr308 residue in mouse 4T1 cells at 0.02 to 2.5 uM incubated for 24 hrs by Western blot analysis; assay type: functional, cell-based; details: dose 0.02-2.5 µM
[4] = Toxicity in nude mouse xenografted with human MDA-MB-231 cells assessed as effect on body weight at 10 to 20 mg/kg, ip administered for 30 days; assay type: organism-based; details: in vivo, 720 h, dose 10-20 mg/kg, time 30 day
MDA-MB-231 [5] = assay: Upregulation of Bid expression in human MDA-MB-231 cells at 0.25 to 1 uM by Western blot analysis; assay type: functional, cell-based; details: dose 0.25-1 µM
4T1 [6] = assay: Upregulation of DUSP1 protein expression in mouse 4T1 cells incubated for 24 hrs by Western blot analysis; assay type: functional, cell-based; details: dose 0.02-2.5 µM
MDA-MB-231 [7] = assay: Antiproliferative activity against human MDA-MB-231 cells assessed as inhibition of cell growth at 0.01 to 100 uM incubated for 72 hrs in presence of Fer-1 by MTT assay; assay type: functional, cell-based; details: dose 0.01-100 µM
MDA-MB-231 [8] = assay: Induction of apoptosis in human MDA-MB-231 cells assessed as early apoptotic cells at 0.5 uM by Annexin V-FITC staining based flow cytometric analysis (reference value: 0.17 %); assay type: functional
MDA-MB-231 [9] = assay: Antitumor activity against human MDA-MB-231 cells xenografted in nude mouse assessed as reduction in tumor volume at 10 to 20 mg/kg, ip administered for 30 days; assay type: functional, organism-based; details: dose 10-20 mg/kg, time 30.0 day
MDA-MB-231 [10] = assay: Antimigratory activity in human MDA-MB-231 cells assessed as inhibition of cell migration at 0.02 to 0.5 uM incubated for 24 hrs by scratch assay; assay type: functional, cell-based; details: dose 0.02-0.5 µM
[11] = Drug metabolism in nude mouse xenografted with human MDA-MB-231 cells assessed as metabolite formation at 10 to 20 mg/kg, ip administered for 30 days by LC-MS/MS analysis; assay type: ADME, organism-based; details: in vivo, 720 h, dose 10-20 mg/kg, time 30 day
MDA-MB-231 [12] = assay: Induction of apoptosis in human MDA-MB-231 cells assessed as early apoptotic cells at 0.25 uM by Annexin V-FITC staining based flow cytometric analysis (reference value: 0.17 %); assay type: functional
MDA-MB-231 [13] = assay: Downregulation of caspase-8 expression in human MDA-MB-231 cells at 0.25 to 1 uM by Western blot analysis; assay type: functional, cell-based; details: dose 0.25-1 µM
MDA-MB-231 [14] = assay: Induction of ferroptosis in human MDA-MB-231 cells assessed as decrease in FTH1 expression by Western blot analysis; assay type: functional, cell-based; details: dose 0.25-1 µM
MDA-MB-231 [15] = assay: Induction of NO release in human MDA-MB-231 cells assessed NO concentration by Griess reagent based assay; assay type: functional
MDA-MB-231 [16] = assay: Induction of apoptosis in human MDA-MB-231 cells assessed as viable cells at 0.25 uM by Annexin V-FITC staining based flow cytometric analysis (reference value: 91.03%); assay type: functional; details: read-out: Activity
MDA-MB-231 [17] = assay: Induction of apoptosis in human MDA-MB-231 cells assessed as necrotic cells at 0.5 uM by Annexin V-FITC staining based flow cytometric analysis (reference value: 7.98 %); assay type: functional
[18] = Acute toxicity in female ICR mouse assessed as effect on behavior at <40 mg/kg, ip measured within 24 hrs; assay type: organism-based; details: in vivo
MDA-MB-231 [19] = assay: Induction of lipid ROS accumulation in human MDA-MB-231 cells incubated for 24 hrs in presence of Fer-1 by BODIPY-C11 probe based flow cytometric analysis; assay type: functional, cell-based
MDA-MB-231 [20] = assay: Induction of ferroptosis in human MDA-MB-231 cells assessed as decrease in GSH/GSSG ratio incubated for 24 hrs by GSH colorimetric assay; assay type: functional, cell-based; details: dose 0.25-1 µM
MDA-MB-231 [21] = assay: Induction of apoptosis in human MDA-MB-231 cells assessed as late apoptotic cells at 1 uM by Annexin V-FITC staining based flow cytometric analysis (reference value: 0.02 %); assay type: functional
[22] = Drug metabolism in nude mouse xenografted with human MDA-MB-231 cells assessed as aurovertin-B release at 10 to 20 mg/kg, ip administered for 30 days by LC-MS/MS analysis; assay type: ADME, organism-based; details: in vivo, 720 h, dose 10-20 mg/kg, time 30 day
4T1 [23] = assay: Antimigratory activity in mouse 4T1 cells assessed as inhibition of cell migration at 0.02 to 0.5 uM incubated for 24 hrs by scratch assay; assay type: functional, cell-based; details: dose 0.02-0.5 µM
4T1 [24] = assay: Antiinvasive activity against mouse 4T1 cells assessed as inhibition of cell invasion at 0.5 uM measured after 24 hrs by crystal violet staining based transwell invasion assay relative to control; assay type: functional
4T1 [25] = assay: Downregulation of phosphorylated AKT protein level at Ser473 residue in mouse 4T1 cells at 0.02 to 2.5 uM incubated for 24 hrs by Western blot analysis; assay type: functional, cell-based; details: dose 0.02-2.5 µM
MDA-MB-231 [26] = assay: Antiinvasive activity against human MDA-MB-231 cells assessed as inhibition of cell invasion at 0.5 uM measured after 24 hrs by crystal violet staining based transwell invasion assay relative to control; assay type: functional
MDA-MB-231 [27] = assay: Induction of ferroptosis in human MDA-MB-231 cells assessed as decrease in FTH1 expression in presence of Fer-1 by Western blot analysis; assay type: functional, cell-based
Cell membrane = assay: Induction of mitochondrial membrane loss in human MDA-MB-231 cells assessed as increase in ratio of green fluorescence at 0.25 to 1 uM incubated for 24 hrs by JC-1 staining based; assay type: cell membranes; details: dose 0.25-1 µM
MDA-MB-231 [28] = assay: Antitumor activity against human MDA-MB-231 cells xenografted in nude mouse assessed as reduction in tumor weight at 10 mg/kg, ip administered for 30 days relative to control; assay type: functional; set-up: scale not given: the % may be the effect or the level left; details: time 30 day
4T1 [29] = assay: Antiproliferative activity against mouse 4T1 cells assessed as reduction in cell viability incubated for 72 hrs by MTT assay; assay type: functional, cell-based; details: 4T1, 72 h
MDA-MB-231 [30] = assay: Induction of apoptosis in human MDA-MB-231 cells assessed as early apoptotic cells at 1 uM by Annexin V-FITC staining based flow cytometric analysis (reference value: 0.17 %); assay type: functional
4T1 [31] = assay: Downregulation of phosphorylated JNK protein level at Thr183/185 residues in mouse 4T1 cells at 0.02 to 2.5 uM incubated for 24 hrs by Western blot analysis; assay type: functional, cell-based; details: dose 0.02-2.5 µM
4T1 [32] = assay: Antimetastatic activity in mouse 4T1 cells implanted in female BALB/c mouse assessed as reduction in number of metastatic nodules in lungs at 10 mg/kg, ip administered once daily for 2 weeks and measured 2 weeks after tumor removal with compound treatment (reference value: 193.7 +/- 6.50); assay type: functional; details: time 4 weeks
MDA-MB-231 [33] = assay: Inhibition of Bcl-xl expression in human MDA-MB-231 cells at 0.25 to 1 uM by Western blot analysis; assay type: functional, cell-based; details: dose 0.25-1 µM
MDA-MB-231 [34] = assay: Inhibition of Bcl2 expression in human MDA-MB-231 cells at 0.25 to 1 uM by Western blot analysis; assay type: functional, cell-based; details: dose 0.25-1 µM
MDA-MB-231 [35] = assay: Induction of ferroptosis in human MDA-MB-231 cells assessed as decrease in GPX4 expression in presence of Fer-1 by Western blot analysis; assay type: functional, cell-based

## CC[C@H]1O[C@@]2(C)[C@H](OC(C)=O)[C@@]1(C)O[C@@H](/C=C/C=C/C=C/c1oc(=O)cc(OC)c1C)[C@@H]2OC(=O)CCC(=O)OC/C=C/COc1no[n+]([O-])c1S(=O)(=O)c1ccccc1
MDA-MB-231 [1]
  IC50: 630 nM
MDA-MB-231 [2]
  Activity: Active
T47D
  IC50: > 50 µM
4T1 [3]
  Activity: Active
[4]
  Activity: Non-Toxic
MDA-MB-231 [5]
  Activity: Active
4T1 [6]
  Activity: Dose-Dependent Effect
MDA-MB-231 [7]
  Activity: inactive
MDA-MB-231 [8]
  Activity: 16.23%
MDA-MB-231 [9]
  Activity: Active
MDA-MB-231 [10]
  Activity: Active
[11]
  Drug metabolism: Metabolite_Detected
MDA-MB-231 [12]
  Activity: 12.97%
MDA-MB-231 [13]
  Activity: Active
MDA-MB-231 [14]
  Activity: Dose-Dependent Effect
MDA-MB-231 [15]
  Activity: 4.87 µM
MDA-MB-231 [16]
  viability at 0.25 µM: 80.8%
MDA-MB-231 [17]
  Activity: 0.44%
[18]
  Activity: Non-Toxic
MDA-MB-231 [19]
  Activity: inactive
MDA-MB-231 [20]
  Activity: Dose-Dependent Effect
MDA-MB-231 [21]
  Activity: 8.89%
[22]
  Drug metabolism: Metabolite_Detected
4T1 [23]
  Activity: Active
4T1 [24]
  inhibition at 0.5 µM: 62.8%
4T1 [25]
  Activity: Active
MDA-MB-231 [26]
  inhibition at 0.5 µM: 60.7%
MDA-MB-231 [27]
  Activity: inactive
Cell membrane
  Activity: Active
MDA-MB-231 [28]
  Activity: 86%
4T1 [29]
  IC50: 870 nM
MDA-MB-231 [30]
  Activity: 42.67%
4T1 [31]
  Activity: Active
4T1 [32]
  Activity: 64.5
MDA-MB-231 [33]
  inhibition: Active
MDA-MB-231 [34]
  inhibition: Active
MDA-MB-231 [35]
  Activity: inactive
